Experimental data as given in ChEMBL document CHEMBL1240477, “Discovery of novel CDK1 inhibitors by combining pharmacophore modeling, QSAR analysis and in silico screening followed by in vitro bioassay” (Eur J Med Chem, 2010).
pIC50: −log10 of the molar value.

Biological target: Cyclin-dependent kinase 1 (Homo sapiens, UniProt P06493)
Experiment: Inhibition of CDK1

Chain of Cyclin-dependent kinase 1 (P06493 whole entry): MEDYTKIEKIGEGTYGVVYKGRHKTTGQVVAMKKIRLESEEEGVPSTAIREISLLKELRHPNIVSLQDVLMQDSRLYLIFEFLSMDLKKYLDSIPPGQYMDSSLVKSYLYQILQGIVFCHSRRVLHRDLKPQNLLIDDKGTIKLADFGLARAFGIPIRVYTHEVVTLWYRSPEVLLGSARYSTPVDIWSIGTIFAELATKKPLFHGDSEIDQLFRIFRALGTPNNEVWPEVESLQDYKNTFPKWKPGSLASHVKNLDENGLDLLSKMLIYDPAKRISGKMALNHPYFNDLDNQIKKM

Compared with `OCCNC(=S)Nc1ccc(C(F)(F)F)cc1`, `OCCSC(=S)Nc1ccc(Cl)c(Cl)c1` is 0.25 log units lower in pIC50: 5.85 for the first, 5.60 for the second. The first is the more potent here.

Compared with `O=C(NCCCO)c1cc(Cl)ccc1O`, `CCN(CCO)CCCNc1ccnc2cc(Cl)ccc12` is 0.48 log units higher in pIC50: 5.60 for the first, 6.08 for the second. The second is the more potent here.

`OCCN(CCO)Cc1cc(Cl)c2cccnc2c1O` and `O=Cc1cc(CCCCCCc2ccc(O)c(C=O)c2)ccc1O` are within 0.2 log units of each other in pIC50: 5.49 for the first, 5.31 for the second.

Going from `COC(=O)c1cc(NC(C)=O)ccc1S(=O)(=O)c1ccc(NC(C)=O)cc1C(=O)OC` to `COc1cc(OC)nc(NC(=O)NS(=O)(=O)c2cc(NC=O)ccc2C(=O)N(C)C)n1` [FORAMSULFURON], the pIC50 falls from 6.04 to 5.44 (0.60 log units). The first is the more potent here.

Compared with `Cc1cc2[nH]c(=S)n([C@@H]3O[C@H](CO)[C@@H](O)[C@H]3O)c2cc1C`, `O=c1c(O)c(-c2ccc(O)c(O)c2)oc2cc(O)cc(O)c12` [QUERCETIN] is 0.67 log units higher in pIC50: 5.68 for the first, 6.35 for the second.

For `C[C@H](N[C@@H](C)COc1ccccc1)[C@@H](O)c1ccc(O)cc1`, the pIC50 was 5.54.
